Assay results taken from US20260199316A1, “SOLID DISPERSION, PREPARATION METHOD THEREFOR, AND USE THEREOF” (HANGZHOU GLUBIO PHARMACEUTICAL CO., LTD, priority 2022, published 2026).
≈ marks a conversion by molar mass, not a printed value.

Tests used:
Type in all cases: physicochemical
[1] = Solubility of rapid solvent evaporation products in FaSSIF
Method: About 10 mg of the API control of the compound of formula A and 40 mg of the polymer carrier were transferred to 1 mL of DCM:EtOH=9:1 (v/v) to prepare a solution with 20% drug loading. The resulting clear solution was rapidly evaporated at 80° C. until there was no liquid to prepare a solid dispersion. The API control of the compound of formula A was also treated separately in the same manner.

[2] = One-week solid stability study of solid dispersions
Method: According to Table 6, three solid dispersions, namely, formulation of API+Soluplus, formulation of API+PVP VA64, and formulation of API+HPC SSL, were stored at 25° C./60% RH (open) and 40° C./75% RH (open) for one week, the appearance of the sample was visually observed and the purity of the samples was analyzed by HPLC.
Therefore, the storage of solid dispersions should avoid exposure to high temperature and high humidity conditions to prevent chemical degradation.

[3] = Four-week solid stability study of API+HPC SSL solid dispersions
Method: All solid dispersions with formulation of API+HPC SSL were stored at 25° C./60% RH (open) and 40° C./75% RH (sealed). After one week and four weeks (1 w and 4 w), the sample appearance was visually observed, the crystal form change was tested by XRPD, and the sample purity was analyzed by HPLC. The results are shown in Tables 11 to 12 and FIGS. 37 to 38.

solubility ([1]; 0.25 h): 470 µg/mL (≈ 1010 µM)
solubility ([1]; 0.5 h): 460 µg/mL (≈ 985 µM)
solubility ([1]; 0.75 h): 490 µg/mL (≈ 1050 µM)
solubility ([1]; 1 h): 510 µg/mL (≈ 1090 µM)
solubility ([1]; 2 h): 440 µg/mL (≈ 942 µM)
Appearance ([2]; 25° C./60% RH open, one week): White powder
Contents ([2]; 25° C./60% RH open, one week): 97.26%
Impurities ([2]; 25° C./60% RH open, one week): 0.72%
RRT 0.54 ([2]; 25° C./60% RH open, one week): 0.10%
RRT 0.92 ([2]; 25° C./60% RH open, one week): <LOQ
RRT 0.93 ([2]; 25° C./60% RH open, one week): 0.10%
RRT 0.95 ([2]; 25° C./60% RH open, one week): 0.09%
RRT 0.96 ([2]; 25° C./60% RH open, one week): 0.10%
RRT 1.00 ([2]; 25° C./60% RH open, one week): 99.29%
RRT 1.11 ([2]; 25° C./60% RH open, one week): 0.09%
RRT 1.18 ([2]; 25° C./60% RH open, one week): 0.17%
RRT 1.24 ([2]; 25° C./60% RH open, one week): 0.06%
Appearance ([2]; 40° C./75% RH open, one week): Slight agglomeration
Contents ([2]; 40° C./75% RH open, one week): 96.79%
Impurities ([2]; 40° C./75% RH open, one week): 1.05%
RRT 0.54 ([2]; 40° C./75% RH open, one week): 0.13%
RRT 0.92 ([2]; 40° C./75% RH open, one week): 0.12%
RRT 0.93 ([2]; 40° C./75% RH open, one week): 0.26%
RRT 0.95 ([2]; 40° C./75% RH open, one week): 0.09%
RRT 0.96 ([2]; 40° C./75% RH open, one week): 0.13%
RRT 1.00 ([2]; 40° C./75% RH open, one week): 98.95%
RRT 1.11 ([2]; 40° C./75% RH open, one week): 0.11%
RRT 1.18 ([2]; 40° C./75% RH open, one week): 0.14%
RRT 1.24 ([2]; 40° C./75% RH open, one week): 0.06%
Appearance ([2]; Initial): White powder
Impurities ([2]; Initial): 0.67%
RRT 0.54 ([2]; Initial): 0.11%
RRT 0.92 ([2]; Initial): <LOQ
RRT 0.93 ([2]; Initial): 0.09%
RRT 0.95 ([2]; Initial): 0.09%
RRT 0.96 ([2]; Initial): 0.10%
RRT 1.00 ([2]; Initial): 99.34%
RRT 1.11 ([2]; Initial): 0.07%
RRT 1.18 ([2]; Initial): 0.15%
RRT 1.24 ([2]; Initial): 0.05%
Contents ([3]; 25° C./60% RH open, 1 w): 96.84%
Impurities ([3]; 25° C./60% RH open, 1 w): 0.81%
RRT 0.92 ([3]; 25° C./60% RH open, 1 w): 0.05%
RRT 0.93 ([3]; 25° C./60% RH open, 1 w): 0.10%
RRT 0.95 ([3]; 25° C./60% RH open, 1 w): 0.09%
RRT 0.96 ([3]; 25° C./60% RH open, 1 w): 0.14%
RRT 1.00 ([3]; 25° C./60% RH open, 1 w): 99.20%
RRT 1.10 ([3]; 25° C./60% RH open, 1 w): 0.32%
RRT 1.17 ([3]; 25° C./60% RH open, 1 w): 0.10%
Contents ([3]; 25° C./60% RH open, 4 w): 101.1%
Impurities ([3]; 25° C./60% RH open, 4 w): 0.70%
RRT 0.92 ([3]; 25° C./60% RH open, 4 w): <LOQ
RRT 0.93 ([3]; 25° C./60% RH open, 4 w): 0.07%
RRT 0.95 ([3]; 25° C./60% RH open, 4 w): 0.09%
RRT 0.96 ([3]; 25° C./60% RH open, 4 w): 0.14%
RRT 1.00 ([3]; 25° C./60% RH open, 4 w): 99.30%
RRT 1.10 ([3]; 25° C./60% RH open, 4 w): 0.32%
RRT 1.17 ([3]; 25° C./60% RH open, 4 w): 0.09%
Contents ([3]; 40° C./75% RH sealed, 1 w): 97.46%
Impurities ([3]; 40° C./75% RH sealed, 1 w): 0.75%
RRT 0.92 ([3]; 40° C./75% RH sealed, 1 w): 0.03%
RRT 0.93 ([3]; 40° C./75% RH sealed, 1 w): 0.06%
RRT 0.95 ([3]; 40° C./75% RH sealed, 1 w): 0.09%
RRT 0.96 ([3]; 40° C./75% RH sealed, 1 w): 0.15%
RRT 1.00 ([3]; 40° C./75% RH sealed, 1 w): 99.25%
RRT 1.10 ([3]; 40° C./75% RH sealed, 1 w): 0.32%
RRT 1.17 ([3]; 40° C./75% RH sealed, 1 w): 0.09%
Contents ([3]; 40° C./75% RH sealed, 4 w): 101.2%
Impurities ([3]; 40° C./75% RH sealed, 4 w): 0.70%
RRT 0.92 ([3]; 40° C./75% RH sealed, 4 w): <LOQ
RRT 0.93 ([3]; 40° C./75% RH sealed, 4 w): 0.06%
RRT 0.95 ([3]; 40° C./75% RH sealed, 4 w): 0.09%
RRT 0.96 ([3]; 40° C./75% RH sealed, 4 w): 0.14%
RRT 1.00 ([3]; 40° C./75% RH sealed, 4 w): 99.30%
RRT 1.10 ([3]; 40° C./75% RH sealed, 4 w): 0.33%
RRT 1.17 ([3]; 40° C./75% RH sealed, 4 w): 0.09%
Impurities ([3]; Initial): 0.78%
RRT 0.92 ([3]; Initial): 0.05%
RRT 0.93 ([3]; Initial): 0.10%
RRT 0.95 ([3]; Initial): 0.09%
RRT 0.96 ([3]; Initial): 0.15%
RRT 1.00 ([3]; Initial): 99.22%
RRT 1.10 ([3]; Initial): 0.31%
RRT 1.17 ([3]; Initial): 0.09%
Compound: O=C1CC[C@H](N2Cc3cc(C(=O)N[C@H](c4ccc(Cl)cn4)C4CCC4)ccc3C2=O)C(=O)N1 [API control, N—((S)-(5-chloropyridin-2-yl)(cyclobutyl)methyl)-2-((S)-2,6-dioxopiperidin-3-yl)-1-oxoisoindoline-5-carboxamide]
